Read-outs that look alike come from different tables or passages of the source.
Assays:
[1] = test system: ERα/β; conditions: read-out: Transactivation EC50, T47D-kBluc; ERE-luciferase; cells express ERα and ERβ; mean ± SEM (n)
Protocol: (§1) Cells were incubated overnight with the various compounds and luciferase activity was then determined in cell lysates. Transactivation activity of the human mineralocorticoid receptor (MR) and peroxisome proliferator-activated receptors (PPAR-γ and PPAR-δ) used the fluorimetric Gene Blazer β-lactamase assay system (InVitrogen) following the manufacturer's instructions. Assays were conducted on 384-well plates using a fluorogenic substrate (CCF4-AM, InVitrogen).

[2] = target: T1, PPAR-δ (Homo sapiens, UniProt Q03181); assay: Gene Blazer β-lactamase transactivation assay, PPAR-δ; assay type: cell-based
T1 sequence (Q03181 211-441 limits assumed): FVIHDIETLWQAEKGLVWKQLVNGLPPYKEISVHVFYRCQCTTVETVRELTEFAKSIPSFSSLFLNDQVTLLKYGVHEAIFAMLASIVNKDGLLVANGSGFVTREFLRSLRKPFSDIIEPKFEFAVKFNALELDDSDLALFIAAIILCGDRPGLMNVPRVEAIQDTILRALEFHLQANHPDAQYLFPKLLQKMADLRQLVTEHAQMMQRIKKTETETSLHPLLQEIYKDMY
Protocol: as §1

[3] = target: T2, human mineralocorticoid receptor (MR) (Homo sapiens, UniProt P08235); assay: Gene Blazer β-lactamase transactivation assay, MR; assay type: cell-based; conditions: data not shown
T2 sequence (P08235 726-984 limits assumed): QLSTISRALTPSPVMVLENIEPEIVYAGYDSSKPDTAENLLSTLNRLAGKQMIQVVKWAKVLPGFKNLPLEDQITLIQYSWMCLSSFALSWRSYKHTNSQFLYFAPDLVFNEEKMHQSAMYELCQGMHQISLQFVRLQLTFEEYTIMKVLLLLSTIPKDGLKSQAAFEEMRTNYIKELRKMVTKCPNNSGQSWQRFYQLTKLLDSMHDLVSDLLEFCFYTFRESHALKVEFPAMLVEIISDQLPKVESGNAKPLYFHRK
Protocol: as §1

[4] = test system: glucocorticoid receptor (GR); conditions: data not shown
Protocol: as §1

[5] = target: PPAR-γ (Homo sapiens, UniProt P37231); conditions: data not shown
PPAR-γ, sequence (P37231 238-505 limits assumed): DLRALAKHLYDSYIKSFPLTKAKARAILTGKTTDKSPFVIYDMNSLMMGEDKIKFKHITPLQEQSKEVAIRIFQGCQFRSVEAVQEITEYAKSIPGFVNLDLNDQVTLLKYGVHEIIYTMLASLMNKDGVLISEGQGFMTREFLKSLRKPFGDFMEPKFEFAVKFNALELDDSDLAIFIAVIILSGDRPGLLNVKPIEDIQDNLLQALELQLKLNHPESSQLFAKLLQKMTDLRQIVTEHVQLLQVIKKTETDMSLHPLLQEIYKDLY
Protocol: as §1

[6] = test system: PLP(139–151)-induced EAE in female SJL/J mice; conditions: 40 mg/kg soluble formulation (cyclodextran) s.c. daily from onset
[7] = test system: CAR-induced pleurisy in CD1 male mice; conditions: 40 mg/kg suspension s.c. 24 h and 1 h before CAR, vs vehicle
[8] = humans, injection of 100–200 mg suspension formulation, for several weeks; ref Stickney et al., in preparation; cited from earlier work
[9] = test system: PLP(139–151)-induced EAE in female SJL/J mice
From the text: Mice Female SJL/J mice (6 to 8 weeks of age; Charles River Italia, Udine, Italy) were maintained in a pathogen-free vivarium at the University of Catania, School of Medicine (Catania, Italy) receiving ad libitum sterilized food and water, and were adapted to the ambient environment for at least 7 days before the start of the study. Animal care and use was in compliance with all applicable regulations for the protection of animals used for experimental and other scientific purposes.
Disease symptoms were monitored daily and scored in a blinded manner using the following scale: 0: no illness, 1: flaccid tail, 2: moderate paraparesis, 3: severe paraparesis, 4: moribund state, 5: death. Mice were randomized to each experimental group before immunization to induce EAE. […] Statistical analysis of cumulative clinical scores was performed by ANOVA analysis for unpaired data. A P-value <.05 was considered to be statistically significant. For statistical analysis, the mice that succumbed to EAE were assigned 5 only for the day of death and then were deleted from the experimental group.

[10] = in vivo; conditions: mouse
[11] = test system: LPS-induced shock in CD1 mice; conditions: for Serum levels of TNFα: male CD-1 mice, LPS 0.5 mg
Protocol: Six-week-old CD1 mice (Charles River, Calco, Italy) were kept under standard laboratory (nonspecific pathogen free) conditions at the University of Catania, School of Medicine, and were housed in a controlled environment and provided with standard rodent chow and water. Animal care and use was in compliance with all applicable regulations on protection of animals used for experimental and other scientific purposes.
To induce lethal endotoxemia, the mice were injected i.p. with 1 mg LPS (Sigma Chimica, Milan, Italy, code L6011, Lot K4096). […] In some studies (performed by Harbor Biosciences) male mice (n = 4 per group) were used and serum was taken 2 hours after LPS (0.5 mg) challenge, to measure levels of TNFα by ELISA.
All P-values of less than .05 were considered significant. For statistical analysis each group is compared to that of vehicle-treated control.

[12] = soluble formulation (cyclodextran), Harbor Biosciences, unpublished observations

CCCc1c(OCCCOc2ccc(OCC(=O)O)cc2)ccc(C(C)=O)c1O [L165,041, reference compound]
EC50 ([2]; reference compound): 1.1 nM

C[C@]12CC[C@H]3[C@@H](CC=C4C[C@@H](O)CC[C@@]43C)[C@@H]1CC[C@@H]2O [5-AED, androst-5-ene-3β,17β-diol]
Transactivation of human mineralocorticoid receptor [3]: does not transactivate
Transactivation of human glucocorticoid receptor [4]: does not transactivate
Transactivation of PPAR-γ [5]: does not transactivate
EAE clinical score vs vehicle [6]: no significant differences
IL-6 level in pleural rinse ([7]; at 4 and 5 hours): significantly reduced
TNFα level in pleural rinse ([7]; at 4 hours): significantly reduced
Sustained serum levels of 5-AED [8]: ~ 30 ng/mL
Mortality ([9]; 0.4 mg/kg suspension s.c., after day 17): 6/10
Cumulative disease score ([9]; 0.4 mg/kg suspension s.c., surviving mice only): 14.5 ± 3.7
Lethality ([9]; 4 mg/kg suspension s.c.): No lethality
Cumulative disease score ([9]; 4 mg/kg suspension s.c. from Day 8 to Day 30, trend, vehicle 25.4 ± 9.3): 18.1 ± 9.9
Lethality ([9]; 40 mg/kg suspension s.c.): No lethality
Cumulative disease score ([9]; 40 mg/kg suspension s.c. from Day 8 to Day 30, vehicle 25.4 ± 9.3): 14.4 ± 9.1
Incidence of EAE ([9]; all groups (0.4, 4.0, 40 mg/kg)): 100%
Minimally effective dose ([9]; suspension s.c.): 4 to 40 mg/kg
Cmax [10]: < 5000 ng/mL
Cmax ([10]; 40 mg/kg): ~100 ng/mL
concentration at 96 h ([10]; 40 mg/kg): ~10 ng/mL
Serum levels of TNFα ([11]; 0.4 mg/kg s.c.): not effective
Serum levels of TNFα ([11]; 4.0 mg/kg s.c.): not effective
Lethality ([11]; 40 mg/kg s.c. given 4 hours after LPS, data not shown): 100%
Lethality ([11]; 40 mg/kg s.c. given 8 hours after LPS, data not shown): 100%
Lethality ([11]; 40 mg/kg s.c. given 24 hours after LPS, data not shown): 100%
Lethality ([11]; 40 mg/kg s.c. given 24 hours before LPS (1 mg i.p.), 72 h, vehicle 100%): 50%
Serum levels of TNFα ([11]; 40 mg/kg suspension s.c., vs vehicle, P < .05): significantly (P < .05) reduced
Transactivation of PPAR-δ ([2]; data not shown): does not transactivate
Time to Cmax (40 mg/kg as suspension, mice): within one hour
Time to Cmax [12]: within minutes
Time to complete clearance [12]: 8 to 12 h

Reference: paper PMC3005896 (Autoimmune Diseases, 2010)
